According to US12178838B2, “Synthetic neuromodulatory peptides” (Lactocore, Inc., priority 2019, dated 2024):
Values joined by “and” are separate entries in the source; they are usually repeats but may differ in a detail not shown here. Equal values may be shown once. Read-outs that look alike come from different tables or passages of the source. No end group written: not given here.

How the values were obtained:
[1] = system: FQSE (SEQ ID NO:10)-specific binding sites in the rat cortex; assay: Radioligand analysis with [3H] FQSE on rat cortex membranes
Protocol: After decapitation, the tissues were immediately frozen in liquid nitrogen and stored in a low-temperature refrigerator at −80° C. On the day of the experiment, brain tissue (cortex, about 300 mg) was homogenized in a Teflon-glass Potter homogenizer 1:25 W:V in the buffer (50 mM Tris-HCl, pH 7.4). The homogenate was centrifuged at 40,000 g for 20 min. The obtained precipitate was homogenized in a buffer (50 mM Tris-HCl; pH=7.4) and centrifuged again at 40,000 g for 20 min. A similar procedure was performed again. The precipitate was resuspended in 15 ml of the same buffer and used for the radioligand analysis.
The incubation mixture (final volume 0.5 ml) contained 50 μl […]
At the end of the incubation, the samples were filtered through Ge/C glass fiber filters (Whatman) previously moistened with 0.3% polyethyleneimine for 2 hours at room temperature. Each tube was washed twice with cold buffer, then the filters were washed twice with the same volume of buffer.
The filters were air-dried and transferred to scintillation vials. Filters were poured with 5 ml of toluene-based scintillation liquid (4 g PPO, 0.2 g POPOP per liter of toluene).
To construct the curves of the radioactive ligand's displacement each concentration of the test substance was taken in 3 replications. […]

[2] = system: zebrafish (Danio rerio); assay: Open Field test in zebrafish; format: in vivo; conditions: ip; for average distance covered / track length (locomotor activity): diazepam 1.25, 5, 10, fluvoxamine 5, 10, ACZ-10 0.6, BCM-7 5, FQSE 1 and 10, DKTE 1, WDQV 10 mg/kg; for time spent at the surface of the aquarium: fluvoxamine 5 and 10 mg/kg, FQSE 1 mg/kg
Protocol: (§1) The tested substances were injected into the zebrafish intraperitoneally (ip) using an insulin syringe (0.5 ml, 30 g) 10 minutes before the test. The saline solution (0.9% NaCl) was used as a solvent. Anesthesia and immobilization of the animals were achieved by placing them in water at a temperature of 10° C. Control group fish received intraperitoneal injections of an equivalent volume of solvent, also after going through a pre-cooling procedure.
(§2) A base, back, and side walls of the aquarium were made of matte black plastic; the front panel (shorter wall) was made of transparent Plexiglas. The setup for the Light/Dark preference test consisted of three main parts: a launch compartment, a light compartment made of white plastic, and a dark compartment made of black plastic. The bright lighting in these tests was provided by a lamp on a stand (LED lamp PL, 11 W, light flux≈600 Lm, about 500 Lx directly above the water surface), which was attached to the upper part of the aquarium.
(§3) The open field test was performed as described in Maximino et al., 2013. A video recording (background shooting) was started 20-30 seconds before the zebrafish were placed in the test aquarium. The experimental zebrafish was placed in an open field (“OF”) aquarium using a net. The recording was being conducted for five minutes. The test was carried out using EthoVision XT software package (Noldus). The software registered the distance covered by the animal, its speed, the number of visits to the three conventional zones of the aquarium: “bottom,” “center,” and […] (lower, middle, and upper thirds of the aquarium, respectively), the time spent in these zones, and the latency of a visit to the middle and to the surface of the aquarium.

[3] = system: zebrafish (Danio rerio); assay: Zebrafish behavioral tests taken together (open field, light/dark box, shoaling); format: in vivo; conditions: ip; for basic behavioral parameters in open field, light/dark box and shoaling tests: FLPY 1 and 10 mg/kg, DKTE 10 mg/kg, WDQV 1 mg/kg
Protocol: as §1, §3
(§4) The shoaling behavior test was performed as described in Parker et al., 2014. (Parker et al. (2014) The utility of zebrafish to study the mechanisms by which ethanol affects social behavior and anxiety during early brain development. Prog. Neuro-Psychopharmacology Biol. Psychiatry. 94-100). The video recording began simultaneously with placing the zebrafish in the set-up and recorded for 5 minutes. The videos were processed using RealTimer (OpenScience Ltd., Moskow, Russia). During the processing of the records, the residence time and the number of visits to the three conventional zones of the aquarium wall (near the “shoal” in the middle of the aquarium, and near the opposite side; all three were equal in size) were recorded.
(§5) The light/dark box (LDB) test was performed as described in Maximino et al., 2011. The zebrafish was placed in a light compartment of an LDB using a net, the camera was switched on simultaneously, and the behavior of the zebrafish was recorded for 5 minutes. The video was processed using RealTimer (OpenScience). During the processing of records, the residence time and the number of visits to the light and dark compartments of the test setup were recorded, as well as the latent period of visiting both compartments.

[4] = system: zebrafish (Danio rerio); assay: Light/dark box test in zebrafish; format: in vivo; conditions: ip, FQSE 10 mg/kg, WDQV 10 mg/kg
Protocol: as §1, §2, §5

[5] = system: zebrafish (Danio rerio); assay: Shoaling behavior test in zebrafish; format: in vivo; conditions: ip, diazepam 1.25 mg/kg, BCM-7 5 mg/kg; for time spent in the compartment near the shoal: ACZ-10 0.6 mg/kg, DKTE 1 mg/kg, vs control
Protocol: as §1
A Plexiglas container with a removable partition (shown in FIG. 4) was used as a setup for investigating the shoaling behavior of zebrafish. A shoal of 5 adult Danio rerio specimens was placed into in the small compartment; and the test fish was placed in a large compartment. Diffused lighting in this installation was provided by the usual lighting of the room (about 200 Lx).
as §4

[6] = FQSE 10 mg/kg, ACZ-10 0.6 mg/kg

Question: `CC(=O)[C@H]1CC[C@H]2[C@@H]3CC[C@H]4C[C@H](O)CC[C@]4(C)[C@H]3CC[C@]12C` [Allopregnanolone] was tested. Which “Amount of bound [3H] FQSE after pre-incubation compared to control level” value (shortened to “Amount of bound … compared to control level”) [1] did it give?
Answer: Its value is 100.90% and 103.18%.

Question: Which “Amount of bound … compared to control level” value [1] does the source give for `CC(C)(C)OC(=O)c1ncn2c1[C@@H]1CCCN1C(=O)c1c(Br)cccc1-2` [Bretanezil] here?
Answer: The value was 94.79% and 104.51%.

Question: With `CCCCCCN(CCCCCC)C(=O)Cc1c(-c2ccc(F)cc2)[nH]c2ccccc12` [FGIN-1-27] as the compound, how does the “Amount of bound … compared to control level” value [1] read?
Answer: Its value is 102.65% and 102.33%.

Question: Which results are given for `COCCCC/C(=N\OCCN)c1ccc(C(F)(F)F)cc1` [Fluvoxamine]?
Answer: increase of the time spent in the upper part ([2]; FQSE 10 mg/kg, fluvoxamine 5 mg/kg): more than 80%; average distance covered / track length (locomotor activity) [2]: did not demonstrate any significant effects; increase of the time spent under light ([2]; fluvoxamine 5 mg/kg): about 6.8 times; increase of the time spent under light ([2]; fluvoxamine 10 mg/kg): about 7.2 times; time spent at the surface of the aquarium ([2]; ACZ-10 0.6 mg/kg): statistically significant increase

Question: `Oc1noc2c1CCNC2` [Gaboxadol] was tested. Which “Amount of bound … compared to control level” value [1] did it give?
Answer: Its value is 99.31% and 100.25%.

Question: With `O=C(O)C1=CCNCC1` [Isoguvacine] as the compound, how does the “Amount of bound … compared to control level” value ([1]; 10^−4M, 1 hour preincubation, 25 minutes incubation) read?
Answer: Its value is 102.56%.

Question: What about the “Amount of bound … compared to control level” value ([1]; 10^−5M, 1 hour preincubation, 25 minutes incubation) of the same compound?
Answer: Its value is 104.33%.

Question: And the IC50 ([1]; Series 5, 25 and 50 minutes at room temperature, read-out: IC50 with respect to [3H]-FQSE binding)?
Answer: The IC50 was greater than 100 µM.

Question: How did the IC50 ([1]; 25 min incubation at RT, read-out: IC50 with respect to [3H]-FQSE binding) turn out when `O=C(c1ccc(F)cc1)C1CCN(CCn2c(=O)[nH]c3ccccc3c2=O)CC1` [Ketanserin] was run?
Answer: Its IC50 is greater than 100 µM.

Question: `Cn1ncnc1COc1nn2c(-c3c(F)cccc3F)nnc2cc1C1CCC1` [MK0343] was tested. Which “Amount of bound … compared to control level” value [1] did it give?
Answer: Its value is 98.58% and 104.65%.

Question: How did the “Amount of bound … compared to control level” value [1] turn out when `CC(=O)[C@H]1CC[C@H]2[C@@H]3CC=C4C[C@@H](O)CC[C@]4(C)[C@H]3CC[C@]12C` [Pregnenolone] was run?
Answer: The value was 87% and 81%.

Question: What about the IC50 ([1]; RT, 50 min, read-out: IC50 after different incubation times: 50 min) of the same compound?
Answer: Its IC50 is 36 ± 0.2 µM.

Question: And the IC50 ([1]; RT, 1 h 30 min, read-out: IC50 after different incubation times: 1 h 30 min)?
Answer: Its IC50 is 75 ± 0.3 µM.

Question: What about the IC50 ([1]; RT, 1 h, read-out: IC50 after different incubation times: 1 h) of the same compound?
Answer: Its IC50 is 77 ± 0.2 µM.

Question: What about the IC50 ([1]; read-out: IC50 for the [3H]-FQSE binding sites in rat cortex membranes) of the same compound?
Answer: The IC50 was roughly 100 µM.

Question: How did the “Amount of bound … compared to control level” value [1] turn out when `O=C(N/N=C/c1ccccc1O)c1ccccc1O` [SCS] was run?
Answer: Its value is 93.93% and 104.58%.

Question: For `Cn1c2ccc(F)cc2c2c(C(=O)N3CCCC3)cn(-c3ccccc3)c(=O)c21` [SL 651498], which “Amount of bound … compared to control level” value [1] is on record?
Answer: The value was 101.36% and 106.98%.

Question: Which “Amount of bound … compared to control level” value [1] does the source give for `CC1(C)CC(=O)c2c(SCCO)sc(-c3nccs3)c2C1` [TB21007] here?
Answer: The value was 103.14% and 105.28%.

Question: `C[C@]12CC[C@@H](O)C[C@@H]1CC[C@@H]1[C@@H]2CC[C@]2(C)[C@@H](C(=O)CO)CC[C@@H]12` [THDOC, tetrahydrodeoxycorticosterone; 3α,21-dihydroxy-5α-pregnan-20-one] was tested. Which “Amount of bound … compared to control level” value [1] did it give?
Answer: The value was 100.59% and 103.38%.

Question: How did the “basic behavioral parameters in open field, light/dark box and shoaling tests” value [3] turn out when “FLPY: tetrapeptide used as a negative control” was run?
Answer: The value was “neither of the doses of FLPY (SEQ ID NO:36), induced statistically significant changes”.

Question: What does the source list for WDQV: tetrapeptide W, D, Q, V?
Answer: average distance covered / track length (locomotor activity) [2]: no influence; time spent in the dark compartment [4]: reduction; time spent in the light compartment ([4]; diazepam 5 mg/kg): increase; basic behavioral parameters in open field, light/dark box and shoaling tests [3]: no significant effects; behavior in tests other than the light/dark box ([3]; WDQV 10 mg/kg): did not reveal any effect

Question: Which “latent period of leaving the bottom” value [2, 6] does the source give for “YLGYLEQLLR [ACZ-10, L-tyrosyl-L-leucyl-glycyl-L-tyrosyl-L-leucyl-L-alpha-glutamyl-L-glutaminyl-L-leucyl-L-leucyl-L-arginine]” here?
Answer: The value was “decreased significantly”.

Question: And the “time spent in the upper part of the aquarium” value [2, 6]?
Answer: Its value is “did not affect”.

Question: And the “average distance covered / track length (locomotor activity)” value [2]?
Answer: Its value is “did not demonstrate any significant effects”.

Question: And the “time spent at the surface of the aquarium” value ([2]; ACZ-10 0.6 mg/kg)?
Answer: Its value is “approximately twofold increase”.

Question: And the “time spent in the compartment near the shoal” value [5]?
Answer: The value was “statistically significant decrease”.

Question: For “YPFPGPI [BCM-7, L-tyrosyl-L-prolyl-L-phenylalanyl-L-prolyl-glycyl-L-prolyl-L-isoleucine]”, which “average distance covered / track length (locomotor activity)” value [2] is on record?
Answer: The value was “slight increase”.

Question: What about the “time spent in the compartment near the shoal” value [5] of the same compound?
Answer: Its value is “decrease”.

Question: And the “time spent outside the shoaling compartment” value [5]?
Answer: The value was “did not demonstrate a statistically significant effect”.
